The IC50 is the concentration that gives 50% inhibition.

Like-named read-outs stand apart in the source and are kept apart here.

The target of experiment [1] is T1, PKC epsilon (Homo sapiens, UniProt Q02156).
T1 construct: purchased Invitrogen P2282
T1 sequence (Q02156 1-737): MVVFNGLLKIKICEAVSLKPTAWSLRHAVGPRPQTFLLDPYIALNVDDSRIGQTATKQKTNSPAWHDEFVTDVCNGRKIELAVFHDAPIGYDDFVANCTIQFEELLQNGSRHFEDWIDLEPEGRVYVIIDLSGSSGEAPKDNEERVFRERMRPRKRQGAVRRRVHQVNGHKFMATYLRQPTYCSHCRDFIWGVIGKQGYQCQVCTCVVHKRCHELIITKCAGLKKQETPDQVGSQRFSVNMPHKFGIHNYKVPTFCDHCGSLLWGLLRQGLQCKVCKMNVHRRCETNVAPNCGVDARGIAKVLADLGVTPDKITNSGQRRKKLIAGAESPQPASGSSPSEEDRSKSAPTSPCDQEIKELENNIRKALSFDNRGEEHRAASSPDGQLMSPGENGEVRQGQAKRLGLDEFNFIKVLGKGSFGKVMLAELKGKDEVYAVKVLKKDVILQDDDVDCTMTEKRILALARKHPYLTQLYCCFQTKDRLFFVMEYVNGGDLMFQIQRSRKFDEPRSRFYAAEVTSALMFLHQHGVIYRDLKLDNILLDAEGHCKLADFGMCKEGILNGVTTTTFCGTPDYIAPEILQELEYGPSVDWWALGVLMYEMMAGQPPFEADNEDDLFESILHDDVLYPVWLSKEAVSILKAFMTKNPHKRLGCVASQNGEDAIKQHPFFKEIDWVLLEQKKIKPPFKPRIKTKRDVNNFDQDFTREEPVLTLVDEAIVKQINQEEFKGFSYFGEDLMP
The experiment can be described thus: Biochemical assay for PKC epsilon (fluorescence polarization, Protein Kinase C Assay Kit, Red). Conditions: read-out: IC50 μM PKCε. Here is the method:
The compounds were tested for inhibition of PKC epsilon.
The inhibition assays were performed with a fluorescence polarization (FP) assay using the commercially available Protein Kinase C Assay Kit, Red, from Invitrogen (Product ID. No. P2941), essentially in accordance with the protocol supplied by the manufacturer. […] The isozyme PKC epsilon was also obtained from Invitrogen (Product ID No. P2282).
Staurosporine was used as a positive control (2 μM).
To perform the assay, 2 μl of a solution of the compound to be tested in DMSO (at each concentration) was added to 6 μl of a solution of the enzyme in 10 mM HEPES, 5 mM dithiotreitol, 0.1% Triton X-100, pH 7.4. The final concentration of the enzymes was 10 ng/ml.
After incubating for 30 minutes at room temperature, 4 μl of a mixture of ATP and the protein substrate in 60 mM HEPES (pH7.4), 15 mM MgCl2, 0.3 mM CaCl2, 0.06% NP40 was added.
After incubating for 80 minutes at room temperature, 3 μl of a mix solution of 500 mM EDTA (stop solution) and the Rhodamine-based PKC Red Tracer (from the Protein Kinase C Assay Kit) in BGG/phosphate buffer (pH7.4) with 0.02% NaN3 and 0.1% Triton X-100 was added and 5 μl of a the Anti-Phosphoserine antibody (also from the Protein Kinase C Assay Kit) in BGG/phosphate buffer (pH7.4) with 0.02% NaN3.
The results were fitted to a curve using the XL-Fit algorithm and […] were calculated for each fitted curve, again using the XL-Fit algorithm.
A general note: Fluorescence polarisation rises when a labelled molecule tumbles more slowly, as on binding a larger partner.

In experiment [2] the target is T2, human ROCKα/ROCKII mix (Homo sapiens, UniProt O75116).
T2 construct: purchased Upstate Biotechnology 14-451
The experiment can be described thus: Biochemical assay for ROCK (fluorescence polarization, ROCK IMAP Kit). As to the method: The compounds were tested for inhibition of human ROCKα/ROCKII mix.
The inhibition assays were performed with a fluorescence polarization (FP) assay using the commercially available ROCK IMAP Kit from Molecular Devices (Product ID. No. R8093), essentially in accordance with the protocol supplied by the manufacturer. […] The enzyme mix ROCKα/ROCKII was obtained from Upstate Biotechnology (Product ID No 14-451).
In summary, the compound was screened in the wells of a 384 well plate for enzymatic inhibition with concentrations varying from 100 μM to 0.3 nM using a stepwise 3 (or 2)-fold dilution.
To perform the assay, 1 μl of a solution of the compound to be tested in DMSO (at each concentration) was added to 2 μl of a solution of the enzyme in 10 mM Tris-HCl , 10 mM MgCl2, 0.1% BSA, 0.05% NaN3, pH 7.2. The final concentration of the enzyme was 2.6 nM.
After incubating for 30 minutes at room temperature, 2 μl of a mixture of ATP and the protein substrate in 10 mM Tris-HCl, 10 mM MgCl2, 0.1% BSA, 0.05% NaN3, pH 7.2 was added. The final concentration of the ATP was 10 μM and final concentration of protein substrate was 0.2 μM.
After incubating for 60 minutes at room temperature, 12 μl of the IMAP Binding Solution (mix of the IMAP Binding Buffer A (1×) and the IMAP Binding Reagent (from the ROCK IMAP kit)) was added.
The mixture thus obtained (total volume: 17 μl) was incubated for 60 minutes at room temperature, upon which the fluorescence polarization was measured using an automated plate reader (Perkin Elmer, Model Envision 2100-0010 HTS) with FP filters: excitation filter FITC FP 480 and emission filters FITC FP P-pol 535 and FITC FP S-pol 535 (Perkin-Elmer). The results were fitted to a curve using the XL-Fit algorithm and IC50 values were calculated for each fitted curve, again using the XL-Fit algorithm.

The mark [3] stands for this setting: Table 2, compounds of Formula XIII.
Where [4] appears, read: compounds of Formula XIV, Table 3.

T2 sequence (O75116 11-552 limits assumed): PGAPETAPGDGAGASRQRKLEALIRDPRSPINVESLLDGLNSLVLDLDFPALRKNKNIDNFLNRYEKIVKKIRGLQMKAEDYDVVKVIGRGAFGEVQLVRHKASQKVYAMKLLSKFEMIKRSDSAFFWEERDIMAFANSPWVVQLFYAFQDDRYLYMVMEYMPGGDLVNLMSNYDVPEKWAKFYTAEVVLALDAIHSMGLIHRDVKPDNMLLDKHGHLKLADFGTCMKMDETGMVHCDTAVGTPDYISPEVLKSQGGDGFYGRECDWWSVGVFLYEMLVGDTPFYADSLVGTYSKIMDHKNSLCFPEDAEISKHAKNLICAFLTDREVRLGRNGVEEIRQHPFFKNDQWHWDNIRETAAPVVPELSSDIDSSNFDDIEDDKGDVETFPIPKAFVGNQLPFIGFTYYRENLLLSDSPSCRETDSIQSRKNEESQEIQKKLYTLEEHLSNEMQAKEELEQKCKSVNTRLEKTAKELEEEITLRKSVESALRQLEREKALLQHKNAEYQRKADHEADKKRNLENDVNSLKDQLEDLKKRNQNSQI

On to `NC(c1ccc(C(=O)Nc2ccncc2)cc1)C1CCCN1C(=O)Cc1csc(-c2ccccc2)n1` (stereo not drawn) [Compound 546, 4-(Amino-{1-[2-(2-phenyl-thiazol-4-yl)-acetyl]-pyrrolidin-2-yl}-methyl)-N-pyridin-4-yl-benzamide], for which the IC50 in experiment [1] and in experiment [2] was 0.5 to 5 µM each time.
For the molecule `NC(c1ccc(C(=O)Nc2ccncc2)cc1)C1CCCN1C(=O)C1Cc2ccccc21` (stereo not drawn) [Compound 552, 4-{Amino-[1-(bicyclo[4.2.0]octa-1,3,5-triene-7-carbonyl)-pyrrolidin-2-yl]-methyl}-N-pyridin-4-yl-benzamide], the IC50 in experiment [1] was in the range of 5 to 50 µM; in experiment [2], 0.05 to 0.5 µM.
For `NC(c1ccc(C(=O)Nc2ccncc2)cc1)C1CCCN1C(=O)C1CCCCc2ccc(F)cc21` (stereo not drawn) [Compound 620, 4-{Amino-[1-(3-fluoro-6,7,8,9-tetrahydro-5H-benzocycloheptene-5-carbonyl)-pyrrolidin-2-yl]-methyl}-N-pyridin-4-yl-benzamide], in that order: 5 to 50 µM and 5 to 50 µM.
As for `COc1ccc(C2(C(=O)NCC(N)c3ccc(C(=O)Nc4ccncc4)cc3)CCCC2)cc1` (stereo not drawn) [Compound 344, 4-(1-Amino-2-{[1-(4-methoxy-phenyl)-cyclopentanecarbonyl]-amino}-ethyl)-N-pyridin-4-yl-benzamide], the IC50 in experiment [1] (setting [3]) and in experiment [2] (setting [3]) was 0.05 to 0.5 µM each time.
In the case of `NC(CNC(=O)C1CCCO1)c1ccc(C(=O)Nc2ccncc2)cc1` (stereo not drawn) [Compound 66, Tetrahydro-furan-2-carboxylic acid {2-amino-2-[4-(pyridin-4-ylcarbamoyl)-phenyl]-ethyl}-amide], the IC50 fell in the range of 5 to 50 µM in experiment [1] (setting [3]) and 0.5 to 5 µM in experiment [2] (setting [3]).
In the case of `NC(CNC(=O)c1nccc2ccccc12)c1ccc(C(=O)Nc2ccncc2)cc1` (stereo not drawn) [Compound 110, Isoquinoline-1-carboxylic acid {2-amino-2-[4-(pyridin-4-ylcarbamoyl)-phenyl]-ethyl}-amide], the IC50 in experiment [1] (setting [3]) and in experiment [2] (setting [3]) was 0.5 to 5 µM throughout.
For the molecule “4-(1-Amino-2-{[2-(3-fluoro-4- methoxy-phenyl)-acetyl]- methyl- amino}-ethyl)- N-pyridin-4-yl-benzamide [Compound 470]”, the values for the IC50 in experiment [1] and in experiment [2] were 5 to 50 µM and 0.5 to 5 µM, respectively.
For `COc1ccc(C(NC(=O)CC(N)c2ccc(C(=O)Nc3ccncc3)cc2)c2ccc(OC)cc2)cc1` (stereo not drawn) [Compound 244, 4-(1-Amino-2-{[bis-(4-methoxy-phenyl)-methyl]-carbamoyl}-ethyl)-N-pyridin-4-yl-benzamide], the IC50 in experiment [1] (setting [4]) was 0.5 to 5 µM; in experiment [2] (setting [4]), 0.05 to 0.5 µM.
Turning to `Cc1ccc(CC(=O)N(C)CC(N)c2ccc(C(=O)Nc3ccncc3)cc2)cc1` (stereo not drawn) [Compound 424, 4-{1-Amino-2-[methyl-(2-p-tolyl-acetyl)-amino]-ethyl}-N-pyridin-4-yl-benzamide], the figures for the IC50 in experiment [1] and in experiment [2] were 5 to 50 µM and 0.5 to 5 µM, respectively.
For the molecule `Cc1ccc(C(=O)NCC(N)c2ccc(C(=O)Nc3ccncc3)cc2)s1` (stereo not drawn) [Compound 117, 5-Methyl-thiophene-2-carboxylic acid {2-amino-2-[4-(pyridin-4-ylcarbamoyl)-phenyl]-ethyl}-amide], the IC50 in experiment [1] (setting [3]) and in experiment [2] (setting [3]) was 0.5 to 5 µM throughout.
Take `NC(CC(=O)NNC(=O)c1ccco1)c1ccc(C(=O)Nc2ccncc2)cc1` (stereo not drawn) [Compound 325, 4-{1-amino-3[N′-(furan-2-carbonyl)-hydrazino]-3-oxo-propyl}-N-pyridin-4-yl-benzamide]: the IC50 in experiment [1] (setting [4]) is 0.5 to 5 µM; in experiment [2] (setting [4]), 0.05 to 0.5 µM.
For `NC(CC(=O)NCc1ccccc1)c1ccc(C(=O)Nc2ccncc2)cc1` (stereo not drawn) [Compound 213, 4-(1-Amino-2-benzylcarbamoyl-ethyl)-N-pyridin-4-yl-benzamide] the same measures were 0.5 to 5 µM and 0.05 to 0.5 µM.
Regarding `NC(CNC(=O)C1(c2ccc(F)c(F)c2)CCCC1)c1ccc(C(=O)Nc2ccncc2)cc1` (stereo not drawn) [Compound 379, 4-(1-Amino-2-{[1-(3,4-difluoro-phenyl)-cyclopentanecarbonyl]-amino}-ethyl)-N-pyridin-4-yl-benzamide], the results for the IC50 in experiment [1] (setting [3]) and in experiment [2] (setting [3]) were under 0.05 µM and 0.05 to 0.5 µM, respectively.
For the molecule `COc1ccc(NC(=S)NCC(N)c2ccc(C(=O)Nc3ccncc3)cc2)cc1` (stereo not drawn) [Compound 14, 4-{1-amino-2-[3-(4-methoxy-phenyl)-thioureido]-ethyl}-N-pyridin-4-yl-benzamide], the IC50 in experiment [1] and in experiment [2] was 0.5 to 5 µM in each case.
Take `NC(c1ccc(C(=O)Nc2ccncc2)cc1)C1CCCN1C(=O)Cc1cccc(Br)c1` (stereo not drawn) [Compound 557, 4-(Amino-{1-[2-(3-bromo-phenyl)-acetyl]-pyrrolidin-2-yl}-methyl)-N-pyridin-4-yl-benzamide]: the IC50 in experiment [1] is 0.5 to 5 µM; in experiment [2] it was 0.05 to 0.5 µM.
For `COc1ccc(C2(C(=O)N3CCCC3C(N)c3ccc(C(=O)Nc4ccncc4)cc3)CC2)cc1` (stereo not drawn) [Compound 529, 4-(Amino-{1-[1-(4-methoxy-phenyl)-cyclopropanecarbonyl]-pyrrolidin-2-yl}-methyl)-N-pyridin-4-yl-benzamide], the IC50 in experiment [1] and in experiment [2] was 0.5 to 5 µM each time.
On to `CCC(C)C(=O)NCC(N)c1ccc(C(=O)Nc2ccncc2)cc1` (stereo not drawn) [Compound 35, 4-[1-Amino-2-(2-methyl-butyrylamino)-ethyl]-N-pyridin-4-yl-benzamide], for which the IC50 in experiment [1] (setting [3]) and in experiment [2] (setting [3]) was 0.5 to 5 µM in each case.
For `Cc1cccc(CC(=O)N(C)CC(N)c2ccc(C(=O)Nc3ccncc3)cc2)c1` (stereo not drawn) [Compound 423, 4-{1-Amino-2-[methyl-(2-m-tolyl-acetyl)-amino]-ethyl}-N-pyridin-4-yl-benzamide], the values for the concentration for half-maximal inhibition (IC50) in experiment [1] and in experiment [2] were 5 to 50 µM and 0.5 to 5 µM, respectively.
With `COc1cccc(NC(=O)NCC(N)c2ccc(C(=O)Nc3ccncc3)cc2)c1` (stereo not drawn) [Compound 29, 4-{1-amino-2-[3-(3-methoxy-phenyl)-ureido]-ethyl}-N-pyridin-4-yl-benzamide], the IC50 is 0.5 to 5 µM in experiment [1] and 0.05 to 0.5 µM in experiment [2].
Regarding `NC(CNC(=O)Cc1ccccn1)c1ccc(C(=O)Nc2ccncc2)cc1` (stereo not drawn) [Compound 150, 4-[1-Amino-2-(2-pyridin-2-yl-acetylamino)-ethyl]-N-pyridin-4-yl-benzamide], the IC50 in experiment [1] (setting [3]) fell in the range of 5 to 50 µM; in experiment [2] (setting [3]), 0.5 to 5 µM.
On to `NC(CNC(=O)C1CC1)c1ccc(C(=O)Nc2ccncc2)cc1` (stereo not drawn) [Compound 39, 4-[1-Amino-2-(cyclopropanecarbonyl-amino)-ethyl]-N-pyridin-4-yl-benzamide], for which the IC50 in experiment [1] (setting [3]) and in experiment [2] (setting [3]) was 0.5 to 5 µM throughout.

For the origin of these results see US20100168102A9, “Amide Derivatives as Kinase Inhibitors” (Devgen NV, priority 2005, published 2010).
